Data on three molecules can be found in patent EP0315861A1, “Antimycotic compositions of a nikkomycin compound and an antimycotic azole” (BAYER AG, priority 1987, dated 1989).

Assay [1] relates to Candida albicans-Strang B311. The assay can be described thus: checkerboard in vitro synergy test (microtiter plates, growth inhibition endpoints, isobolograms). The class given is cell-based. The following applies: combination with Nikkomycin versus azole alone. The text has this:
Um die Eignung von Nikkomycinen und Azolen hinsichtlich der synergistischen Wirkung zu testen, wurde ein schachbrettartiger in vitro-Versuch mit der Hefe Candida albicans durchgeführt.
Ein Candida albicans-Strang B311 wurde über Nacht in einer Glucose-Hefeextrakt-Kultur gezüchtet, gewaschen und auf die gewünschte Dichte gebracht.
Die Tests wurden in 96-Loch-Mikrotiterplatten durchgeführt, wobei man eine Hefestickstoffkultur mit Dextrose und Asparagin als Wachstumsmedium verwendete. Die Testmaterialien wurden gelöst, serienmässig verdünnt und dann in die geeigneten Löcher der Mikrotiterplatten überführt, so dass die Endkonzentrationen von 0,02 bis 1 mMol für die Nikkomycine, und 0,06 bis 64 µg für die Azole betrugen. Alle Löcher wurden mit 10.000 Organismen/ml (Endkonzentration) geimpft,und die Platten bei Raumtemperatur 48 Stunden lang inkubiert. Die Platten wurden dann ausgewertet,und die Wachstumsrate für jedes Loch festgestellt. Die Endpunkte wurden für jede Reihe als niedrigste Konzentration, die eine vollständige Inhibierung des Wachstums zeigte, bestimmt. Die Daten wurden als Isobologramme geplottet, die die Endpunkte für die einzelnen Verbindungen als auch die Endpunkte für die verschiedenen Kombinationen zeigten. […]

A further assay concerns C. albicans. Kind of assay: septic murine candidosis model, oral therapy. In kind it is in vivo, CFW₁-Mäuse. The following applies: for Zahl der überlebenden Tiere in den folgenden Tagen nach der Infektion: 2 x 100 mg/kg oral on the day of infection, 10 animals at day 0. How it is done:
Wirksamkeit von Nikkomycin X und Z in dem Tiermodell von Murine candidosis.
Gezüchtete CFW₁-Mäuse wurden intravenös mit 6 x 10⁵ cfu von C. albicans infiziert. Die orale Therapie wurde gleichzeitig mit der Infektion gestartet. Die Mittel wurden einzeln mit Nährnadeln in Volumina von 0,5 ml ausgegeben.
In dem Modell der septischen Murine candidosis, das häufig zum Testen von Azolen verwendet wird, wird die Behandlung der Tiere gleichzeitig mit der Infektion gestartet, indem man 2 x 100 mg/kg beider Zubereitungen am Tag der Infektion verabreichte. Diese Verabreichungsweise erzeugt nur eine leichte Verzögerung in der lethalen Kinetik (Tabelle 1).

Structures are written as SMILES.

Regarding `Clc1ccccc1C(c1ccccc1)(c1ccccc1)n1ccnc1` [Clotrimazol], in assay [1], the “Reduktion des Endpunktes für die Kombination hinsichtlich des Azolendpunktes” value is ≥ 50 -fach.
Regarding `C[C@@H]([C@H](N)C(=O)N[C@H](C(=O)O)[C@H]1O[C@@H](n2cc(C=O)[nH]c2=O)[C@H](O)[C@@H]1O)[C@H](O)c1ccc(O)cn1` [Nikkomycin X], the “Zahl der überlebenden Tiere in den folgenden Tagen nach der Infektion” value is 10 with C. albicans (day 3 after infection) and 3 in the assay with C. albicans (day 6 after infection).
Take `C[C@@H]([C@H](N)C(=O)N[C@H](C(=O)O)[C@H]1O[C@@H](n2ccc(=O)[nH]c2=O)[C@H](O)[C@@H]1O)[C@H](O)c1ccc(O)cn1` [Nikkomycin Z]: the Wirksamkeit entry in the assay with C. albicans (14-day treatment, daily dose 2 x 10 mg/kg, Fig. 2) is reported as “wirksamer als 2 x 100 mg/kg”; with C. albicans (treatment period 3 days, 100 mg/kg, Fig. 1) it was “vergleichbar zu der von 25 mg/kg Ketoconazol oder Vibunazol”. For the same molecule, the “Zahl der überlebenden Tiere in den folgenden Tagen nach der Infektion” value worked out at 6 in the assay with C. albicans (day 3 after infection) and 5 with C. albicans (day 6 after infection).
